The numbers were not newly measured in patent publication US10194658B2, “High concentration low VOC liquid gibberellin” (Stoller Enterprises, Inc., priority 2015, dated 2019), which cites them from elsewhere.

The conditions of this series: at 20° C.

In the case of `CC(O)CO` (stereo not shown) [propylene glycol, propane-1,2-diol], the vapor pressure is on record as 0.08 mm Hg.
